# Test results taken from article PMC8802628, “Selective activation of PFKL suppresses the phagocytic oxidative burst” (Cell, 2021).
# Where “and” joins values, the source holds several entries; their conditions need not be identical. Equal values may be shown once.
# Columns and labels:
# [1] = molecular target: T1, PFKL(V545L, V582M) (PFKL−hook) (Homo sapiens, UniProt P17858, V545L/V582M); test: Recombinant PFKL−hook activity assay; assay type: biochemical; settings: for EC50: pH 7.5, 3.1 mM ATP, 2.5 mM F6P, mean ± SEM, read-out: EC50, activation of PFKL−hook
# T1 construct: made in house; host or cells: Sf9 insect cells (baculovirus)
# T1 sequence (P17858 1-780 V545L/V582M): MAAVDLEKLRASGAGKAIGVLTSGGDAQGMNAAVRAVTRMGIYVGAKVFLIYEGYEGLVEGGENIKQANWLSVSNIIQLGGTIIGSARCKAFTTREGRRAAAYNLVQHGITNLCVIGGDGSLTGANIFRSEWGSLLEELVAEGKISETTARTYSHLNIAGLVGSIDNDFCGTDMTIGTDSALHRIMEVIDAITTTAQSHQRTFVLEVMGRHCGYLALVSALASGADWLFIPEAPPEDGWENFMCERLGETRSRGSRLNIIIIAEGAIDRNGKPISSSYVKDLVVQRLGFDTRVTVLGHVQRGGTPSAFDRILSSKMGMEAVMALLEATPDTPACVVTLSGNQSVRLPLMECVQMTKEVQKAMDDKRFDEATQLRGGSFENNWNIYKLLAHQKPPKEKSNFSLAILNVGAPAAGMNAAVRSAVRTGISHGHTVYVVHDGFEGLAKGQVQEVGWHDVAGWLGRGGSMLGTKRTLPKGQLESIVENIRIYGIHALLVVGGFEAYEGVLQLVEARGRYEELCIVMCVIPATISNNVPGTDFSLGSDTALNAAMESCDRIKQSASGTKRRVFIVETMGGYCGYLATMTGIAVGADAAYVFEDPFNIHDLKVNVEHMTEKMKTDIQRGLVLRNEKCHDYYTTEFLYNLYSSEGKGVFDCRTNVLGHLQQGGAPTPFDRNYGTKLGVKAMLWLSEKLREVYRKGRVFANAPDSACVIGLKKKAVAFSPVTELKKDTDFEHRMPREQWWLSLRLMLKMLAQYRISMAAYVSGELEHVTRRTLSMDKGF
# Text: Recombinant N-terminal His-tagged human PFKL (NP_002617), PFKM (NP_000280), and PFKP (NM_002627.4) were generated as described ([Webb et al., 2015], [2017]). Point mutants of PFK1 were generated using the QuikChange Lightning kit (Aligent).
# His-tagged PFK1 was expressed and purified as described with slight modifications ([Webb et al., 2015], [2017]). Briefly, baculovirus was generated using the Bac-to-Bac Expression system (Invitrogen). PFK1 was expressed in 2-5 × 10^6 sf9 cells at a multiplicity of infection of two for 48 h. Cells were lysed in 20 mM HEPES, pH 7.5, 80 mM potassium phosphate, 1 mM 2-mercapentoethanol, 10% glycerol, 10 mM imidazole, and EDTA-free Protease Inhibitor Cocktail (Abcam) with a Dounce homogenizer. The soluble lysate was incubated with HisPur cobalt resin (ThermoFisher Scientific). The resin was washed with 5 bead volumes lysis buffer, 10 bead volumes lysis buffer containing 2 M NaCl, and 5 further bead volumes lysis buffer. PFK1 was eluted in lysis buffer containing 100 mM imidazole. Fractions containing protein were pooled, passed over a desalting column equilibrated in freezing buffer [20 mM HEPES pH 7.5, 1 mM DTT, 500 μM ammonium sulfate, 5% glycerol, 1 mM ATP, and 100 μM EDTA] and concentrated using an Amicon Ultracel-30K Centrifugal Filter Unit (MilliporeSigma). Protein was quantified using a Bradford Protein Assay kit (ThermoFisher Scientific), and aliquotes frozen in liquid nitrogen for storage at −80°C.
# PFK1 activity was determined using the rate of FBP production via an auxiliary enzyme assay adapted to a 96-well format ([Brüser et al., 2012]; [Webb et al., 2015]). The auxiliary enzymes aldolase, triosephosphate isomerase, and glycerol phosphate dehydrogenase were purchased from MilliporeSigma as ammonium sulfate slurries and desalted using an Amicon Ultracel-10K Centrifugal Filter Unit. For assays containing FBP, the rate of ADP production was determined using the auxiliary enzymes pyruvate kinase (PK) and lactate dehydrogenase (LDH) (MilliporeSigma) in a buffer containing 250 μM phosphoenolpyruvic acid, […] NADH, 50 mM HEPES pH 7.5, 100 mM KCl, 1 mM DTT, and effector concentrations as described in the text. The temperature was equilibrated to 25°C for 5 min before initiating the reaction 10 mM MgCl2. Absorbance at 340 nm was measured using a Varioskan LUX Multimode microplate reader (ThermoFisher). Kinetic parameters were generated by nonlinear regression analysis using Prism (GraphPad Software) and are the mean of a minimum of three measurements from two independent preparations of protein. One unit of activity was defined as the amount of enzyme that catalyzed the formation of 1 μmol of fructose 1,6-bisphosphate per min at 25°C. […]
# [2] = system: human peripheral blood neutrophils; test: NETosis assay in human neutrophils (SYTOX Green, DNA area); assay type: cell-based; settings: for inhibition of PMA-induced NETosis: SAR analogs compared to LDC7559; for fold more potent than LDC7559, inhibition of NETosis: compared to LDC7559
# Description: Freshly purified neutrophils were plated at 6 × 10^3 cells/well in glass bottom 96-well plates (SensoPlate, Greiner Bio-One 82050-792) in the RPMI medium described above. Cells were pretreated with DMSO vehicle, 0.5 μM NA-11, 100 μM apocynin, 0.5 μM and 5 μM PALP, or 0.5 μM and 5 μM LDC7559 for 30 min, and then stimulated with 50 nM PMA, 1 μM f-MLP, 5 μg/mL cholesterol crystals, 10 μg/mL LPS, 25 μM nigericin, or 25 μM calcymicin (A23187) for 3 h (except in Figures S1A, 6A and S7C, where cells were stimulated for 4 h). Cells were fixed and permeabilized in 2.5% paraformaldehyde (PFA) and 0.02% Triton X-100 in PBS for 30 min. For quantification of NETosis, cells were stained with 150 nM SYTOX Green and imaged in a KEYENCE Fluorescence Microscope (KEYENCE, ZB-X800E) at 10 x magnification. For immunolabeling, fixed cells were blocked with 2% BSA for 1 h, and then stained with anti-CitH3 and anti-MPO antibodies at a dilution of 1/200 in 1% BSA in PBS. Images were taken at 60 x magnification using an ImageXpress Micro Confocal high-content imaging system (Molecular Devices).
# Semi-automated analysis of both phase and fluorescence images of SYTOX Green-stained neutrophils used a specialized MATLAB algorithm. Total cells were counted by scoring phase standard deviation and radial symmetry. NETosis was classified in cells by measuring the DNA area in the fluorescence image and comparing with a select internal training set for each experiment. Unstimulated cells and PMA-stimulated, […] cells served as negative controls. PMA-stimulated cells served as a positive control. NET-forming cells are presented as a percentage of total cells.
SMILES,inhibition of PMA-induced NETosis ([2]; PMA),EC50 [1] [µM],"fold more potent than LDC7559, inhibition of NETosis [2]",further results
"O=C(CO)[C@@H](O)[C@H](O)[C@H](O)COP(=O)(O)O [F6P, fructose 6-phosphate]",,,,"Vmax,F6P ([1]; PFKL−hook, pH 7.5, 225 μM ATP): 11.50 ± 0.57 micromoles FBP per minute per milligram PFK1; hF6P (Hill coefficient) ([1]; PFKL−hook, pH 7.5, 225 μM ATP): 2.87 ± 0.50"
"COc1ccccc1-c1cc2n(n1)Cc1ccc(NC(C)=O)cc1OC2 [LDC7559, reference compound]",inhibited PMA-induced NETosis in a dose-dependent manner,,,ability to inhibit NETosis (activity range) ([2]; neutrophils): low-micromolar range; spontaneous NETosis ([2]; no stimulus): did not prevent spontaneous NETosis
CC(=O)Nc1ccc2c(c1)OCc1cc(-c3ccccc3)nn1C2 [NA-5],,0.0181 ± 0.00319,~ 10 fold,
CC(=O)Nc1ccc2c(c1)OCc1cc(-c3ccccc3C#CCCCO)nn1C2 [NA-11],inhibiting NOX2-dependent NETosis induced by PMA,0.0533 ± 0.00577,"~ 1,000 fold and 1,000 fold","NOX2-dependent NETosis induced by fMLP, LPS, and cholesterol crystals ([2]; 0.5 μM, 4 h stimulation): inhibited NOX2-dependent NETosis; IC50 ([2]; human PMNs, PMA, read-out: IC50, inhibition of PMA-induced NETosis): 0.004 ± 0.0005 µM"
